Assays:
HCT-116 = experiment: cells; type: cell-based; conditions: Homo sapiens; HCT-116; 10 μM; read-out: growth inhibition % (GI%)
ACHN = experiment: cells; type: cell-based; conditions: Homo sapiens, 10 μM, read-out: growth inhibition % (GI%)
SR = experiment: cells; type: cell-based; conditions: Homo sapiens, 10 μM, read-out: growth inhibition % (GI%)
HCT-15 = experiment: cells; type: cell-based; conditions: Homo sapiens; HCT-15; 10 μM; read-out: growth inhibition % (GI%)
[1] = system: panel of 60 tumour cell lines; experiment: NCI 60 cell line antiproliferative screening (SRB), whole panel or subpanels (means, ranges, words); type: cell-based, human; conditions: for inhibition at 10 µM: Homo sapiens, 60 cell, mean over the cell line panel, read-out: Mean growth inhibition % (mean GI%)
SF-268 = experiment: cells; type: cell-based; conditions: Homo sapiens; SF-268; 10 μM; read-out: growth inhibition % (GI%)
786-0 = experiment: cells; type: cell-based; conditions: Homo sapiens; 786-0; 10 μM; read-out: growth inhibition % (GI%)
LOX IMIV = experiment: cells; type: cell-based; conditions: Homo sapiens, 60 cell; LOX IMIV; 10 μM; read-out: growth inhibition % (GI%)
IGROV1 = experiment: cells; type: cell-based; conditions: Homo sapiens, IGROV-1; IGROV1; 10 μM; read-out: growth inhibition % (GI%)
U251 = experiment: cells; type: cell-based; conditions: Homo sapiens, U-251; U251; 10 μM; read-out: growth inhibition % (GI%)
SK-MEL-28 = experiment: cells; type: cell-based; conditions: Homo sapiens; SK-MEL-28; 10 μM; read-out: growth inhibition % (GI%)
COLO-205 = experiment: cells; type: cell-based; conditions: Homo sapiens; COLO-205; 10 μM; read-out: growth inhibition % (GI%)
PC-3 = experiment: cells; type: cell-based; conditions: Homo sapiens; PC-3; 10 μM; read-out: growth inhibition % (GI%)
HT29 = experiment: cells; type: cell-based; conditions: Homo sapiens, HT-29; HT29; 10 μM; read-out: growth inhibition % (GI%)
KM12 = experiment: cells; type: cell-based; conditions: Homo sapiens; KM12; 10 μM; read-out: growth inhibition % (GI%)
CCRF-CEM = experiment: cells; type: cell-based; conditions: Homo sapiens, 10 μM, read-out: growth inhibition % (GI%)
SNB-19 = experiment: cells; type: cell-based; conditions: Homo sapiens; SNB-19; 10 μM; read-out: growth inhibition % (GI%)
TK-10 = experiment: cells; type: cell-based; conditions: Homo sapiens; TK-10; 10 μM; read-out: growth inhibition % (GI%)
NCI-H522 = experiment: cells; type: cell-based; conditions: Homo sapiens; NCI-H522; 10 μM; read-out: growth inhibition % (GI%)
SK-OV-3 = experiment: cells; type: cell-based; conditions: Homo sapiens; SK-OV-3; 10 μM; read-out: growth inhibition % (GI%)
SN12C = experiment: cells; type: cell-based; conditions: Homo sapiens, 10 μM, read-out: growth inhibition % (GI%)
OVCAR-8 = experiment: cells; type: cell-based; conditions: Homo sapiens; OVCAR-8; 10 μM; read-out: growth inhibition % (GI%)
OVCAR-3 = experiment: NCI 60 cell line antiproliferative screening (SRB), Ovarian cancer; conditions: Homo sapiens, OVCAR-3, read-out: growth inhibition % (GI%)
SW-620 = experiment: cells; type: cell-based; conditions: Homo sapiens; SW-620; 10 μM; read-out: growth inhibition % (GI%)
HOP-92 = experiment: cells; type: cell-based; conditions: Homo sapiens; HOP-92; 10 μM; read-out: growth inhibition % (GI%)
UO-31 = experiment: cells; type: cell-based; conditions: Homo sapiens; UO-31; 10 μM; read-out: growth inhibition % (GI%)
MDA-MB-231/ATCC = experiment: NCI 60 cell line antiproliferative screening (SRB), Breast cancer; type: cell-based; conditions: Homo sapiens, MDA-MB-231, read-out: growth inhibition % (GI%)
OVCAR-4 = experiment: cells; type: cell-based; conditions: Homo sapiens; OVCAR-4; 10 μM; read-out: growth inhibition % (GI%)
EKVX = experiment: cells; type: cell-based; conditions: Homo sapiens, 10 μM, read-out: growth inhibition % (GI%)
HOP-62 = experiment: cells; type: cell-based; conditions: Homo sapiens; HOP-62; 10 μM; read-out: growth inhibition % (GI%)
MOLT-4 = experiment: cells; type: cell-based; conditions: Homo sapiens; MOLT-4; 10 μM; read-out: growth inhibition % (GI%)
SK-MEL-2 = experiment: cells; type: cell-based; conditions: Homo sapiens; SK-MEL-2; 10 μM; read-out: growth inhibition % (GI%)
A549/ATCC = experiment: cells; type: cell-based; conditions: Homo sapiens; A549/ATCC; 10 μM; read-out: growth inhibition % (GI%)
MCF7 = experiment: cells; type: cell-based; conditions: Homo sapiens; MCF7; 10 μM; read-out: growth inhibition % (GI%)
K-562 = experiment: cells; type: cell-based; conditions: Homo sapiens, K562; K-562; 10 μM; read-out: growth inhibition % (GI%)
SK-MEL-5 = experiment: cells; type: cell-based; conditions: Homo sapiens; SK-MEL-5; 10 μM; read-out: growth inhibition % (GI%)
SNB-75 = experiment: cells; type: cell-based; conditions: Homo sapiens; SNB-75; 10 μM; read-out: growth inhibition % (GI%)
A498 = experiment: cells; type: cell-based; conditions: Homo sapiens; A498; 10 μM; read-out: growth inhibition % (GI%)
MDA-MB-435 = experiment: cells; type: cell-based; conditions: Homo sapiens; MDA-MB-435; 10 μM; read-out: growth inhibition % (GI%)
NCI-H226 = experiment: cells; type: cell-based; conditions: Homo sapiens; NCI-H226; 10 μM; read-out: growth inhibition % (GI%)
HS 578T = experiment: cells; type: cell-based; conditions: Homo sapiens; HS 578T; 10 μM; read-out: growth inhibition % (GI%)
NCI-H322M = experiment: cells; type: cell-based; conditions: Homo sapiens, 10 μM, read-out: growth inhibition % (GI%)
MDA-MB-468 = experiment: NCI 60 cell line antiproliferative screening (SRB), Breast cancer; conditions: Homo sapiens, MDA-MB-468, read-out: growth inhibition % (GI%)
T-47D = experiment: cells; type: cell-based; conditions: Homo sapiens, T47D; T-47D; 10 μM; read-out: growth inhibition % (GI%)
HCC-2998 = experiment: cells; type: cell-based; conditions: Homo sapiens; HCC-2998; 10 μM; read-out: growth inhibition % (GI%)
SF-295 = experiment: cells; type: cell-based; conditions: Homo sapiens; SF-295; 10 μM; read-out: growth inhibition % (GI%)

In the case of `O=C(CSc1nc2ccccc2c(=O)n1-c1ccc(Cl)cc1)NN=Cc1ccc(Oc2ccc(Br)cc2)cc1` [6e, N'-(4–(4-bromophenoxy)benzylidene)-2-((3–(4-chlorophenyl)-4-oxo-3,4-dihydroquinazolin-2-yl)thio)acetohydrazide], the inhibition at 10 µM (HCT-116) is reported as < 15%, the inhibition at 10 µM (ACHN) is reported as < 15% and the inhibition at 10 µM (SR) is reported as < 15%. The inhibition at 10 µM (HCT-15) was < 15%, the “antiproliferative activity against all tested cell lines” value ([1]; 10 μM single dose) was “abolishing the antiproliferative activity” and the inhibition at 10 µM [1] was < 0%. The inhibition at 10 µM (SF-268) was < 15%, the inhibition at 10 µM (786-0) was < 15% and the inhibition at 10 µM (LOX IMIV) was < 15%. For the same compound, the inhibition at 10 µM (IGROV1) was < 15%, the inhibition at 10 µM (U251) was < 15% and the inhibition at 10 µM (SK-MEL-28) was < 15%. The inhibition at 10 µM (COLO-205) was < 15%, the inhibition at 10 µM (PC-3) was < 15% and the inhibition at 10 µM (HT29) was < 15%. For the same compound, the inhibition at 10 µM (KM12) was < 15%, the inhibition at 10 µM (CCRF-CEM) was < 15% and the inhibition at 10 µM (SNB-19) was < 15%. For the same compound, the inhibition at 10 µM (TK-10) was < 15%, the inhibition at 10 µM (NCI-H522) was 13.4% and the inhibition at 10 µM (SK-OV-3) was < 15%. The inhibition at 10 µM (SN12C) was < 15%, the inhibition at 10 µM (OVCAR-8) was < 15% and the inhibition at 10 µM (OVCAR-3) was < 15%. The inhibition at 10 µM (SW-620) was < 15%, the inhibition at 10 µM (HOP-92) was < 15% and the inhibition at 10 µM (UO-31) was 20.8%. The inhibition at 10 µM (MDA-MB-231/ATCC) was < 15%, the inhibition at 10 µM (OVCAR-4) was < 15% and the inhibition at 10 µM (EKVX) was < 15%. For the same compound, the inhibition at 10 µM (HOP-62) was < 15%, the inhibition at 10 µM (MOLT-4) was < 15% and the inhibition at 10 µM (SK-MEL-2) was < 15%. The inhibition at 10 µM (A549/ATCC) was < 15%, the inhibition at 10 µM (MCF7) was < 15% and the inhibition at 10 µM (K-562) was < 15%. The inhibition at 10 µM (SK-MEL-5) was < 15%, the inhibition at 10 µM (SNB-75) was < 15% and the inhibition at 10 µM (A498) was 15.7%. The inhibition at 10 µM (MDA-MB-435) was < 15%, the inhibition at 10 µM (NCI-H226) was < 15% and the inhibition at 10 µM (HS 578T) was < 15%. The inhibition at 10 µM (NCI-H322M) was < 15%, the inhibition at 10 µM (MDA-MB-468) was < 15% and the inhibition at 10 µM (T-47D) was < 15%. The inhibition at 10 µM (HCC-2998) was < 15% and the inhibition at 10 µM (SF-295) was < 15%.
With `O=C(CSc1nc2ccccc2c(=O)n1-c1ccccc1)NN=Cc1ccc(N2CCCCC2)cc1` [6g, 2-((4-oxo-3-phenyl-3,4-dihydroquinazolin-2-yl)thio)-N'-(4-(piperidin-1-yl)benzylidene) acetohydrazide] the inhibition at 10 µM (HCT-116) was 15.5%, the inhibition at 10 µM (ACHN) was < 15% and the inhibition at 10 µM (SR) was 24.7%. The inhibition at 10 µM (HCT-15) was 16.2%, the inhibition at 10 µM [1] was 4.28% and the inhibition at 10 µM (SF-268) was < 15%. The inhibition at 10 µM (786-0) was < 15%, the inhibition at 10 µM (LOX IMIV) was < 15% and the inhibition at 10 µM (IGROV1) was < 15%. For the same compound, the inhibition at 10 µM (U251) was < 15%, the inhibition at 10 µM (SK-MEL-28) was < 15% and the inhibition at 10 µM (COLO-205) was < 15%. For the same compound, the inhibition at 10 µM (PC-3) was 18.5%, the inhibition at 10 µM (HT29) was < 15% and the inhibition at 10 µM (KM12) was < 15%. For the same compound, the inhibition at 10 µM (CCRF-CEM) was < 15%, the inhibition at 10 µM (SNB-19) was < 15% and the inhibition at 10 µM (TK-10) was < 15%. For the same compound, the inhibition at 10 µM (NCI-H522) was 15.3%, the inhibition at 10 µM (SK-OV-3) was < 15% and the inhibition at 10 µM (SN12C) was < 15%. The inhibition at 10 µM (OVCAR-8) was < 15%, the inhibition at 10 µM (OVCAR-3) was < 15% and the inhibition at 10 µM (SW-620) was < 15%. For the same compound, the inhibition at 10 µM (HOP-92) was 19.5%, the inhibition at 10 µM (UO-31) was 23.3% and the inhibition at 10 µM (MDA-MB-231/ATCC) was < 15%. For the same compound, the inhibition at 10 µM (OVCAR-4) was < 15%, the inhibition at 10 µM (EKVX) was 20.4% and the inhibition at 10 µM (HOP-62) was < 15%. The inhibition at 10 µM (MOLT-4) was 28.5%, the inhibition at 10 µM (SK-MEL-2) was < 15% and the inhibition at 10 µM (A549/ATCC) was 15.1%. The inhibition at 10 µM (MCF7) was 16.2%, the inhibition at 10 µM (K-562) was 26.8% and the inhibition at 10 µM (SK-MEL-5) was < 15%. The inhibition at 10 µM (SNB-75) was 19.9%, the inhibition at 10 µM (A498) was < 15% and the inhibition at 10 µM (MDA-MB-435) was < 15%. The inhibition at 10 µM (NCI-H226) was < 15%, the inhibition at 10 µM (HS 578T) was < 15% and the inhibition at 10 µM (NCI-H322M) was < 15%. For the same compound, the inhibition at 10 µM (MDA-MB-468) was < 15%, the inhibition at 10 µM (T-47D) was < 15% and the inhibition at 10 µM (HCC-2998) was < 15%. The inhibition at 10 µM (SF-295) was < 15%.

Reference: publication PMC9518264, “Design and synthesis of novel quinazolinone-based derivatives as EGFR inhibitors with antitumor activity” (Journal of Enzyme Inhibition and Medicinal Chemistry, 2022)
